Experimental data: patent publication US10744114B2, “Use of eupatilin as pharmaceutical composition for prevention and treatment of fibrosis using EMT inhibitory activity” (OSTEONEUROGEN INC., priority 2016, dated 2020)

Tested on: ONGHEPA1 cells
Assay: Global gene expression analysis (RNA-Seq) and target gene analysis
Type: cell-based, mouse
Conditions: 24 hr
Description: For a mechanism for the therapeutic effect on fibrosis, the global gene expression of DMSO-treated ONGHEPA1 cells (a control group), ONGHEPA1 cells in which fibrosis was induced by TGF-β, and ONGHEPA1 cells treated with TGF-β and eupatilin was measured.
The cells were treated with DMSO, TGF-β or eupatilin for 24 hr, and total RNA was isolated to manufacture a library, after which about 10,000 expressed mRNA species in a total transcriptome of 30 Gb were analyzed using an Illumina High-seq sequencer.

COc1ccc(-c2cc(=O)c3c(O)c(OC)c(O)cc3o2)cc1OC [eupatilin, 2-(3,4-dimethoxyphenyl)-5,7-dihydroxy-6-methoxy-chromone]
expression of Fstl1 (TGF-β + eupatilin): inhibited to a level of almost zero | Log2fc A disintegrin-like and metallopeptidase (reprolysin type) with thrombospondin type 1 motif 2 (Adamts2) (TGF-β vs TGF-β+eupatilin): 2.08 | Log2fc A disintegrin-like and metallopeptidase with thrombospondin type 1 motif 12 (Adamts12) (TGF-β vs TGF-β+eupatilin): 2.09 | Log2fc AXL receptor tyrosine kinase (Axl) (TGF-β vs TGF-β+eupatilin): −infinite | Log2fc Actin alpha 4 (Actn4) (TGF-β vs TGF-β+eupatilin): infinite | Log2fc Actin, gamma2 (Actg2) (TGF-β vs TGF-β+eupatilin): −5.83 | Log2fc ArfGAP with SH3 domain, ankyrin repeat and PH domain 1 (Asap1) (TGF-β vs TGF-β+eupatilin): −infinite | Log2fc Aurora kinase A (Aurka) (TGF-β vs TGF-β+eupatilin): −15.3 | Log2fc BTAF1 RNA polymerase II, B-TFIID transcription factor-associated (Btaf1) (TGF-β vs TGF-β+eupatilin): −infinite | Log2fc C-terminal-binding protein 2 (Ctbp2) (TGF-β vs TGF-β+eupatilin): infinite | Log2fc Caldesmon 1 (Cald1) (TGF-β vs TGF-β+eupatilin): infinite | Log2fc Calreticulin (Calr) (TGF-β vs TGF-β+eupatilin): −1.74 | Log2fc Calumenin (Calu) (TGF-β vs TGF-β+eupatilin): infinite | Log2fc Caveolin 1, Caveolae protein (Cav1) (TGF-β vs TGF-β+eupatilin): 1.76 | Log2fc Cell cycle associated protein 1 (Caprin1) (TGF-β vs TGF-β+eupatilin): −infinite | Log2fc Cell migration inducing protein, hyaluronan binding (Cemip) (TGF-β vs TGF-β+eupatilin): −2.75 | Log2fc Coatomer protein complex, subunit gamma 1 (Copg1) (TGF-β vs TGF-β+eupatilin): infinite | Log2fc Collagen type 1 alpha 1 (Col1a1) (TGF-β vs TGF-β+eupatilin): −1.64 | Log2fc Collagen type VII alpha1 (Col7a1) (TGF-β vs TGF-β+eupatilin): −15.2 | Log2fc Collagen type XV, alpha 1 (Col5a1) (TGF-β vs TGF-β+eupatilin): 2.26 | Log2fc Collagen, type III, alpha 1 (Col3a1) (TGF-β vs TGF-β+eupatilin): infinite | Log2fc Collagen, type XI, alpha 1 (Col11a1) (TGF-β vs TGF-β+eupatilin): −3.11 | Log2fc Collagen, type XII, alpha 1 (Col12a1) (TGF-β vs TGF-β+eupatilin): 2.02 | Log2fc Colony stimulating factor 1 (macrophage) (Csf1) (TGF-β vs TGF-β+eupatilin): 2.15 | Log2fc Crystallin, zeta (quinone reductase)-like 1 (Cryzl1) (TGF-β vs TGF-β+eupatilin): infinite | Log2fc Cyclin D2 (Ccnd2) (TGF-β vs TGF-β+eupatilin): 2.29 | Log2fc Dihydropyrimidinase-like 3 (Dpysl3) (TGF-β vs TGF-β+eupatilin): infinite | Log2fc Doublecortin-like kinase 1 (Dclk1) (TGF-β vs TGF-β+eupatilin): 1.54 | Log2fc Dynein cytoplasmic 1 heavy chain 1 (Dync1h1) (TGF-β vs TGF-β+eupatilin): −infinite | Log2fc Dysferlin (Dysf) (TGF-β vs TGF-β+eupatilin): 2.06 | Log2fc EH-domain containing 2 (Ehd2) (TGF-β vs TGF-β+eupatilin): infinite | Log2fc Elastin (Eln) (TGF-β vs TGF-β+eupatilin): 3.28 | Log2fc Endoglin (Eng) (TGF-β vs TGF-β+eupatilin): −infinite | Log2fc Endoplasmic reticulum-golgi intermediate compartment 1 (ERGIC1) (TGF-β vs TGF-β+eupatilin): −1.26 | Log2fc Ephrin B2 (Efnb2) (TGF-β vs TGF-β+eupatilin): 1.92 | Log2fc Epidermal growth factor-containing fibulin-like extracellular matrix protein 2 (Efemp2) (TGF-β vs TGF-β+eupatilin): 1.66 | Log2fc Exocyst complex component 4 (Exoc4) (TGF-β vs TGF-β+eupatilin): 2.9 | Log2fc Family with sequence similarity 175, member B (Fam175b) (TGF-β vs TGF-β+eupatilin): −infinite | Log2fc Fibronectin 1 (Fn1) (TGF-β vs TGF-β+eupatilin): infinite | Log2fc Fibronectin type III domain containing 1 (Fndc1) (TGF-β vs TGF-β+eupatilin): 1.75 | Log2fc Follistatin-like 1 (Fstl1) (TGF-β vs TGF-β+eupatilin): infinite | Log2fc Fras 1 related extracellular matrix protein 1 (Frem1) (TGF-β vs TGF-β+eupatilin): 2.36 | Log2fc Heat shock protein 90, alpha (cytosolic), class A member 1(Hsp90aa1) (TGF-β vs TGF-β+eupatilin): infinite | Log2fc Heparan sulfate 6-O-sulfotransferase 2 (Hs6st2) (TGF-β vs TGF-β+eupatilin): 3.26 | Log2fc Importin-4 (Ipo4) (TGF-β vs TGF-β+eupatilin): −infinite | Log2fc Inhibition beta-A (Inhba) (TGF-β vs TGF-β+eupatilin): 2.19 | Log2fc Inositol hexakisphosphate kinase 1 (Ip6k1) (TGF-β vs TGF-β+eupatilin): −infinite | Log2fc Integral beta 5 (Itgb5) (TGF-β vs TGF-β+eupatilin): −infinite | Log2fc Interleukin 18 receptor accessory protein (Il18rap) (TGF-β vs TGF-β+eupatilin): 1.69 | Log2fc Intersectin 1 (SH3 domain protein 1A) (Itsn1) (TGF-β vs TGF-β+eupatilin): infinite | Log2fc Laminin, alpha 4 (Lama4) (TGF-β vs TGF-β+eupatilin): −1.29 | Log2fc Latent transforming growth factor beta binding protein 1 (Ltbp1) (TGF-β vs TGF-β+eupatilin): 3.32 | Log2fc Latent transforming growth factor beta binding protein 2 (Ltbp2) (TGF-β vs TGF-β+eupatilin): −infinite
